Series [1] relates to Caco-2 monolayers. It counts as in vitro ADME. The following applies: human.
Series [2] concerns the target T1, human MRP2 (Homo sapiens, UniProt Q92887).
T1 construct: purchased BD Biosciences; host or cells: insect Sf9 cells
The series can be described thus: MRP2 membrane vesicles transport assay with scutellarin as probe (Example 13). It counts as biochemical. As to the method: With some changes in BD protocol of MRP2 vesicles assay, a rapid filtration technique of multiscreen HTS vacuum manifold (Millipore) was used in the analysis. […] The mixture was incubated in the buffer (250 mM sucrose, 10 mM MgCl2, 10 mM Tris/HCl, pH 7.4) at 37° C. for […], followed by addition of 15 μl of 25 mM MgATP or blank buffer to each well started the test. The mixture was incubated for 4 min and stopped by transferring the membrane vesicles to a filter plate.

Series [3] relates to Caco-2 monolayers. It counts as in vitro ADME, human. How it is done:
Caco-2 cells were seeded on 24-well Millicell insert filters with a density of about 1×10^5 cells/well. These cells were cultured for 21 days to reach confluence and differentiation. The integrity of Caco-2 cell monolayers was evaluated by monitoring trans-epithelial electrical resistance (TEER) on an epithelial volt ohmmeter (World Precision Instruments, Sarasota, Fla., USA). The impermeability (gate functions) of epithelial cell monolayers was measured by the fluorescein leakage test (FLT) that provided information on the effects of xenobiotics on the impermeability of epithelial cell monolayers. The differentiation was assessed using the alkaline phosphatase (ALP) assay at 562 nm
After the above measured parameters of the Caco-2 model became stable, transport study was performed from the apical (AP) to the basolateral (BL) side and from BL to AP at 37° C. Following 30 min of equilibration after the addition of 400 μl HBSS (pH 7.4) in AP side and 600 μl in BL side in an atmosphere of 5% CO2, the test solutions containing 100 μM scutellarin or each of 100 μg/ml of five surfactants Cremophor® EL, Cremophor® RH, Labrasol®, Pluronic® F68, and Pluronic® F127; each of 100 μg/ml of three oils Labrafac Lipophile® WL1349, Maisine® 35-1, and Capmul® MCM; each of 100 μg/ml of three co-surfactants Transcutol®, PEG 400, and PEG 2000; and each of 100 μg/ml of four solid carriers β-cyclodextrin, lactose, HPMC K4M®, HPMC K100®. The solutions were all dissolved in DMSO and HBSS and then added to the donor side. The sample of 100 μM scutellarin was used as the scutellarin standard group in comparing the excipients efflux effect. Permeability of scutellarin was measured at 37° C. from the AP to BL direction and BL to AP direction after incubating in 5% CO2 for respectively 30 min, 60 min, and 90 min. […] After 90 min of incubation, solutions from both AP and BL sides were collected. Then the separately collected samples from each well of AP and BL sides were diluted with equal amounts of methanol before they were injected into the LC-MS for quantification of scutellarin. At 30, 60, 90 min of incubation, TEER values were respectively detected before the samples were drawn from the tested wells.
In the Caco-2 permeation analysis, if the calculated efflux ratio of one excipient group was lower than scutellarin standard group, this excipient might possibly be indicated to have the inhibition effect on MRP2.

[4] abbreviates: human, Caco-2, 90 min, 100 μg/ml, pH 7.4.

Where two headings read alike, the source gives them in different places.

T1 sequence (Q92887 whole entry): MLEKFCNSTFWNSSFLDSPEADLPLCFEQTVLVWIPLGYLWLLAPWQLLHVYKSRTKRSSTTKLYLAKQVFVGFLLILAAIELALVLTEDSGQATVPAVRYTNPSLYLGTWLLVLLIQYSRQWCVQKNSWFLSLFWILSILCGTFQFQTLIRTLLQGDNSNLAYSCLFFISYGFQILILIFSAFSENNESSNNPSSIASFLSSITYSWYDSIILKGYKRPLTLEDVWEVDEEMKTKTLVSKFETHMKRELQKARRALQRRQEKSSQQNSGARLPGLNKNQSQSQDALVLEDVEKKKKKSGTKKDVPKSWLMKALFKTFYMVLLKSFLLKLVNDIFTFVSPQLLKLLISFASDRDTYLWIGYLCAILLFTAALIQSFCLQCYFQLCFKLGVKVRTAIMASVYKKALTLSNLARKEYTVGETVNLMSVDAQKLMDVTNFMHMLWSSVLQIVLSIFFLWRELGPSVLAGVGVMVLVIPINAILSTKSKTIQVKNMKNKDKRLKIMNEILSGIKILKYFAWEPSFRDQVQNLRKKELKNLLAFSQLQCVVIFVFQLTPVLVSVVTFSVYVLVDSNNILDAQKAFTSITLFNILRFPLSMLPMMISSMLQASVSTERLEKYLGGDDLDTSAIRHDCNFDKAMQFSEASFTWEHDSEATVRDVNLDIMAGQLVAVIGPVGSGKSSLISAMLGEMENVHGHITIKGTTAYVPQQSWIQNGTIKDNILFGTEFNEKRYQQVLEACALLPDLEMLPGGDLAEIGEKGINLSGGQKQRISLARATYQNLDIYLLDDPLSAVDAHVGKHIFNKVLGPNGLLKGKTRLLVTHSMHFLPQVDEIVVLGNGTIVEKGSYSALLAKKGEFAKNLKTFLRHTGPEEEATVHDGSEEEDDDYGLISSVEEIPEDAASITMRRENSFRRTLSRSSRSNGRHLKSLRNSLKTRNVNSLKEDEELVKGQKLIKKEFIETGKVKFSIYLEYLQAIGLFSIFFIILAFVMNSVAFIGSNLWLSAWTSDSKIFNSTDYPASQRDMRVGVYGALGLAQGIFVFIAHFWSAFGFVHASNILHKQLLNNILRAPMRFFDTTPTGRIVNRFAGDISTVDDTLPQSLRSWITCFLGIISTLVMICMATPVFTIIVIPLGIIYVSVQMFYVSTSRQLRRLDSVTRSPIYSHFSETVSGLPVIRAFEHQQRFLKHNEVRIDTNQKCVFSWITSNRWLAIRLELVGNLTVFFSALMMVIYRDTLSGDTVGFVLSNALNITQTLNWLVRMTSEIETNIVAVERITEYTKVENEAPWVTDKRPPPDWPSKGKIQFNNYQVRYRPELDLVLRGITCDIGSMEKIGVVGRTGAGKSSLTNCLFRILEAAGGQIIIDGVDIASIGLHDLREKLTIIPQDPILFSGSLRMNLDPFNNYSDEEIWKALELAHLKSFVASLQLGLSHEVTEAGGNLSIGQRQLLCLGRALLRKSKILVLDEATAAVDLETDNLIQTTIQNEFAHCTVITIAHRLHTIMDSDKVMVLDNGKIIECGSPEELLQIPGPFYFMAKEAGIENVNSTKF

As to `O=C(O)[C@H]1O[C@@H](Oc2cc3oc(-c4ccc(O)cc4)cc(=O)c3c(O)c2O)[C@H](O)[C@@H](O)[C@@H]1O` [Scutellarin, 4,5,6-trihydroxyflavone-7-glucuronide], the “identification as MRP2 substrate with MRP2 inhibitor MK571” value in series [1] is “identified as the substrate for MRP2”.
On to `CCOCCOCCO` [Transcutol ®, diethylene glycol monoethylether], for which the “sequence of inhibition effects on MRP2” value in series [2] (within excipient group, p<0.05) is listed as “PEG 2000>PEG 400>Transcutol®”. In series [3] (setting [4]), the PappAB is recorded as 2.69 ± 0.35 10^−6 cm · s^−1 and the PappBA was 5.99 ± 0.52 10^−6 cm · s^−1.
In the case of `OC[C@H]1O[C@@H](O[C@H]2[C@H](O)[C@@H](O)C(O)O[C@@H]2CO)[C@H](O)[C@@H](O)[C@H]1O` (stereo partly shown) [lactose], in series [3] (setting [4]), the PappAB was 1.44 ± 0.24 10^−6 cm · s^−1 and the PappBA is given as 7.90 ± 0.43 10^−6 cm · s^−1.
`OC[C@H]1O[C@@H]2O[C@H]3[C@H](O)[C@@H](O)[C@@H](O[C@H]4[C@H](O)[C@@H](O)[C@@H](O[C@H]5[C@H](O)[C@@H](O)[C@@H](O[C@H]6[C@H](O)[C@@H](O)[C@@H](O[C@H]7[C@H](O)[C@@H](O)[C@@H](O[C@H]8[C@H](O)[C@@H](O)[C@@H](O[C@H]1[C@H](O)[C@H]2O)O[C@@H]8CO)O[C@@H]7CO)O[C@@H]6CO)O[C@@H]5CO)O[C@@H]4CO)O[C@@H]3CO` [β-cyclodextrin]: the “scutellarin concentrations measured compared with scutellarin standard group (FIG. 2)” value in series [2] (higher than standard means MRP2 inhibition) is recorded as “lower quantities of scutellarin than that of the standard group”. Moreover, in series [3] (Caco-2), the PappAB is 4.04 ± 0.33 10^−6 cm · s^−1 and the PappBA is listed as 9.33 ± 0.36 10^−6 cm · s^−1.
Regarding Pluronic ® F68, in series [3] (Caco-2), the Efflux reduction sequence entry was “Cremophor® RH>Pluronic® F68>Labrasol®>Pluronic® F127”, the PappAB is 2.03 ± 0.35 10^−6 cm · s^−1 and the PappBA is reported as 4.38 ± 0.13 10^−6 cm · s^−1.
The like results for Pluronic ® F127 were, in that order, “Cremophor® RH>Pluronic® F68>Labrasol®>Pluronic® F127”, 1.84 ± 0.09 10^−6 cm · s^−1 and 5.31 ± 0.49 10^−6 cm · s^−1.
As to polyethylene glycol [PEG 400], in series [3] (Caco-2), the PappAB was 1.46 ± 0.08 10^−6 cm · s^−1 and the PappBA is reported as 1.96 ± 0.05 10^−6 cm · s^−1.
In the case of polyethylene glycol [PEG 2000], in series [3] (Caco-2), the PappAB was 9.91 ± 0.35 10^−6 cm · s^−1 and the PappBA is 12.91 ± 1.60 10^−6 cm · s^−1.

Source of the values: patent US20140057860A1, “PHARMACEUTICAL COMPOSITION FOR TREATING CARDIOVASCULAR AND CEREBROVASCULAR DISEASES AND METHOD OF MANUFACTURING THE SAME” (Macau University of Science and Technology, priority 2012, published 2014).
